Converted amounts (≈) assume the structure as drawn. Counter-ions that a name gives are not always drawn. Blank lines part the entries; values can stand above or below the molecule they belong to.
How the values were obtained:
[1] = tested on: E. faecalis ATCC29212; assay: MIC by dilutions in agar medium (NCCLS); format: cell-based; conditions: Enterococcus faecalis, Gram-positive, at 24 hours, agar dilution
Excerpt: (§1) a) Activity in vitro The method of dilutions in agar medium in agreement with the NCCLS recommendations is used for the determination of the minimum inhibitory concentrations (MIC) expressed in μg/ml.

[2] = tested on: M. catarrhalis IPA151 sensitive; assay: MIC by dilutions in agar medium (NCCLS); format: cell-based; conditions: Moraxella catarrhalis, IPA151SENSITIVE; Gram-negative, at 48 hours, agar dilution
Excerpt: as §1

[3] = tested on: S. aureus AS 5155 methicillin resistant; assay: MIC by dilutions in agar medium (NCCLS); format: cell-based; conditions: Staphylococcus aureus; Gram-positive, at 24 hours, agar dilution
Excerpt: as §1

[4] = tested on: S. aureus IP8203 sensitive; assay: MIC by dilutions in agar medium (NCCLS); format: cell-based; conditions: Staphylococcus aureus; Gram-positive, at 24 hours, agar dilution
Excerpt: as §1

[5] = tested on: S. pneumoniae 6254-01 MLSB resistant; assay: MIC by dilutions in agar medium (NCCLS); format: cell-based; conditions: Streptococcus pneumoniae; Gram-positive, at 24 hours, agar dilution
Excerpt: as §1

SMILES: COc1ccc2ncc(F)c(CCCC3(C(=O)O)CCN(CCSc4c(F)cccc4F)C3)c2c1 (single isomer, unassigned) [Example 57, 1-[2-[(2,6-difluorophenyl)thio]ethyl]-3-[3-(3-fluoro-6-methoxyquinolin-4-yl)propyl]-3-pyrrolidinecarboxylic acid]
- melting point: 106 °C

SMILES: COc1ccc2ncc(F)c(CCCC3(C(=O)O)CCN(CCSc4cccs4)C3)c2c1 (single isomer, unassigned) [Example 18, 3-[3-(3-fluoro-6-methoxyquinolin-4-yl)propyl]-1-[2-(2-thienylthio)ethyl]-3-pyrrolidinecarboxylic acid]
- melting point: 172 °C

SMILES: COc1ccc2ncc(F)c(CCCC3(C(=O)O)CCN(CCSc4cccs4)C3)c2c1 (single isomer, unassigned) [Example 17, 3-[3-(3-fluoro-6-methoxyquinolin-4-yl)propyl]-1-[2-(2-thienylthio)ethyl]-3-pyrrolidinecarboxylic acid]
- melting point: 160 °C

SMILES: COc1ccc2ncc(Cl)c(CCCC3(C(=O)O)CCN(C/C=C/c4cc(F)ccc4F)C3)c2c1 (racemic) (as salt: sodium) [Example 15, (±)-3-[3-(3-chloro-6-methoxyquinolin-4-yl)propyl]-1-[(2E)-3-(2,5-difluorophenyl)-2-propenyl]-3-pyrrolidinecarboxylic acid]
- melting point: 77 °C

SMILES: COc1ccc2ncc(F)c(CCCC3(C(=O)O)CCN(C/C=C/c4cc(Cl)ccc4Cl)C3)c2c1 (single isomer, unassigned) [Example 36, 1-[(2E)-3-(2,5-dichlorophenyl)-2-propenyl]-3-[3-(3-fluoro-6-methoxyquinolin-4-yl)propyl]-3-pyrrolidinecarboxylic acid]
- melting point: 102 °C

SMILES: COc1ccc2ncc(F)c(CCCC3(C(=O)O)CCN(CCOc4cc(F)ccc4F)C3)c2c1 (single isomer, unassigned) [Example 30, 1-[2-(2,5-difluorophenoxy)ethyl]-3-[3-(3-fluoro-6-methoxyquinolin-4-yl)propyl]-3-pyrrolidinecarboxylic acid]
- melting point: 157 °C

SMILES: COc1ccc2ncc(F)c(CCCC3(C(=O)O)CN(C/C=C/c4cc(F)ccc4F)C3)c2c1 [Example 11, 1-[(2E)-3-(2,5-difluorophenyl)-2-propenyl]-3-[3-(3-fluoro-6-methoxyquinolin-4-yl)propyl]-3-azetidinecarboxylic acid]
- melting point: 211 °C

SMILES: COC(=O)C1(CCCc2c(F)cnc3ccc(OC)cc23)CCN(C/C=C/c2cc(F)ccc2F)C1 (racemic) [Example 2, Methyl (±)-1-[(2E)-3-(2,5-difluorophenyl)-2-propenyl]-3-[3-(3-fluoro-6-methoxyquinolin-4-yl)propyl]-3-pyrrolidinecarboxylate]
- MIC [1]: 0.25 to 32 µg/mL (≈ 0.501 to 64.2 µM)
- MIC [2]: 0.12 to 2 µg/mL (≈ 0.241 to 4.01 µM)
- MIC [3]: 0.015 to 4 µg/mL (≈ 0.0301 to 8.02 µM)
- MIC [4]: 0.015 to 4 µg/mL (≈ 0.0301 to 8.02 µM)
- MIC [5]: 0.015 to 4 µg/mL (≈ 0.0301 to 8.02 µM)

Further lines, results first:

- melting point: 148 °C
SMILES: COc1ccc2ncc(F)c(CCCC3(C(=O)O)CCN(C/C=C/c4cc(F)c(F)c(F)c4)C3)c2c1 (single isomer, unassigned) [Example 50, 3-[3-(3-fluoro-6-methoxyquinolin-4-yl)propyl]-1-[(2E)-3-(3,4,5-trifluorophenyl)-2-propenyl]-3-pyrrolidinecarboxylic acid]

- MIC [1]: 0.25 to 32 µg/mL (≈ 0.516 to 66 µM)
- MIC [2]: 0.12 to 2 µg/mL (≈ 0.248 to 4.13 µM)
- MIC [3]: 0.015 to 4 µg/mL (≈ 0.031 to 8.26 µM)
- MIC [4]: 0.015 to 4 µg/mL (≈ 0.031 to 8.26 µM)
- MIC [5]: 0.015 to 4 µg/mL (≈ 0.031 to 8.26 µM)
- melting point: 77 °C
SMILES: COc1ccc2ncc(F)c(CCCC3(C(=O)O)CCN(C/C=C/c4cc(F)ccc4F)C3)c2c1 (racemic) [Example 1, (±)-1-[(2E)-3-(2,5-difluorophenyl)-2-propenyl]-3-[3-(3-fluoro-6-methoxyquinolin-4-yl)propyl]-3-pyrrolidinecarboxylic acid]

- melting point: 110 °C
SMILES: COc1ccc2ncc(F)c(CCCC3(C(=O)O)CCN(C/C=C/c4cc(F)c(F)c(F)c4)C3)c2c1 (single isomer, unassigned) [Example 49, 3-[3-(3-fluoro-6-methoxyquinolin-4-yl)propyl]-1-[(2E)-3-(3,4,5-trifluorophenyl)-2-propenyl]-3-pyrrolidinecarboxylic acid]

- melting point: 80 to 84 °C
SMILES: COc1ccc2ncc(F)c(CCCC3(C(=O)O)CCN(C/C=C/c4cc(F)ccc4F)C3)c2c1 (single isomer, unassigned) [Example 4, 1-[(2E)-3-(2,5-difluorophenyl)-2-propenyl]-3-[3-(3-fluoro-6-methoxyquinolin-4-yl)propyl]-3-pyrrolidinecarboxylic acid]

- melting point: 96 °C
SMILES: COc1ccc2ncc(F)c(CCCC3(C(=O)O)CCN(C/C=C/c4c(F)cccc4F)C3)c2c1 (single isomer, unassigned) (as salt: hydrochloride) [Example 41, 3-[3-(3-fluoro-6-methoxyquinolin-4-yl)propyl]-1-[(2E)-3-(2,6-difluorophenyl)-2-propenyl]-3-pyrrolidinecarboxylic acid]

- MIC [1]: 0.25 to 32 µg/mL (≈ 0.516 to 66 µM)
- MIC [2]: 0.12 to 2 µg/mL (≈ 0.248 to 4.13 µM)
- MIC [3]: 0.015 to 4 µg/mL (≈ 0.031 to 8.26 µM)
- MIC [4]: 0.015 to 4 µg/mL (≈ 0.031 to 8.26 µM)
- MIC [5]: 0.015 to 4 µg/mL (≈ 0.031 to 8.26 µM)
- melting point: 76 to 80 °C
SMILES: COc1ccc2ncc(F)c(CCCC3(C(=O)O)CCN(C/C=C/c4cc(F)ccc4F)C3)c2c1 (single isomer, unassigned) [Example 3, 1-[(2E)-3-(2,5-difluorophenyl)-2-propenyl]-3-[3-(3-fluoro-6-methoxyquinolin-4-yl)propyl]-3-pyrrolidinecarboxylic acid]

— patent US7232833B2, “4-substituted quinoline derivatives, method and intermediates for their preparation and pharmaceutical compositions containing them” (Novexel, priority 2003, dated 2007)
